According to ChEMBL document CHEMBL1147738, “Potent and selective mitogen-activated protein kinase kinase (MEK) 1,2 inhibitors. 1. 4-(4-bromo-2-fluorophenylamino)-1- methylpyridin-2(1H)-ones” (J Med Chem, 2006):

How the values were obtained:
Malme-3M [1] = test: Inhibition of basal ERK phosphorylation in Malme-3M cells; assay type: functional, Homo sapiens
Malme-3M [2] = test: Inhibition of cellular viability of Malme-3M cells; assay type: functional, Homo sapiens

Row | Compound | Activity (Malme-3M [1]) [nM] | Activity (Malme-3M [2]) [nM]
1 | CONC(=O)c1cn(C)c(=O)c(F)c1Nc1ccc(Br)cc1F | 22 | 145
2 | Cn1cc(C(=O)NOCC2CC2)c(Nc2ccc(Br)cc2F)cc1=O | 26 | 165
3 | Cn1cc(C(=O)NO)c(Nc2ccc(Br)cc2F)c(F)c1=O | 18 | 860
4 | COc1ncc(C(=O)NOCCO)c(Nc2ccc(Br)cc2F)c1Cl | >10000 | >5000
5 | Cn1cc(C(=O)NOCCO)c(Nc2ccc(Br)cc2F)cc1=O | 73 | 460
6 | Cn1cc(C(=O)NOCCO)c(Nc2ccc(Br)cc2F)c(F)c1=O | 22 | 115
7 | Cn1cc(C(=O)NOCCO)c(Nc2ccc(Br)cc2F)c(Cl)c1=O | 26 | 175
8 | Cn1cc(C(=O)O)c(Nc2ccc(Br)cc2F)c(F)c1=O | >10000 | >5000
